Data published in patent publication US8722731B2, “Furanyl compounds and the use thereof” (NovoMedix, LLC, priority 2010, dated 2014).
Values belong to the compound of their own block, whether it stands above or below them.

Legend:
FaDu = assay: IC50 cell-based assay, adherent cells, FaDu; conditions: Homo sapiens, Pharynx, squamous cell, 72 hours, read-out: IC50 of Compounds in Adherent Cell Types
Experimental: (§1) In one embodiment, the IC50s of the compounds provided herein were determined in cell-based assays using adherent cells. In one embodiment, the activity of the compounds provided herein were determined in a cell-based assay using the triple negative breast cancer cell line MDA-MB-468. In one embodiment, the adherent cells used in the cell-based assays may be a cell type selected from Table 1. In one embodiment, the cell-based assay may be carried out as provided herein. On day 0, cells were seeded at 20,000 cells per well in 100 µL of media into individual wells of a 96-well tissue culture plate. The next day, compounds were diluted to twice the desired final concentration and added in 100 µL of media for a final volume of 200 μL. Standard solutions for each compound were prepared at 1000× concentration in DMSO. The highest concentration was 30 mM. Serial 1:1 dilutions were made from there for a 6- or 9-point curve (e.g., 30 mM, 15 mM, 7.5 mM, etc). Compounds were then diluted 1:500 in media, and 100 µL of the resulting solution was added to each well for a final dilution of 1:1000. Each concentration of compound was tested in triplicate. Cells were incubated at 37° C. with 5% CO2. After 72 hours, 20 μL of CellTiter 96 Aqueous One Solution Cell Proliferation Assay (Promega) was added to each well. Cells were placed back in the incubator, and the absorbance at 490 nm was read after 2-3 hours. The concentration of compound that decreased the number of metabolically active cells by 50% was determined and reported as the IC50. “Percent Viability” was determined by subtracting the average background value (media only) and expressed as a ratio to the average value obtained from cells treated with only DMSO.

U87-MG = assay: IC50 cell-based assay, adherent cells, U87-MG; conditions: Homo sapiens, U-87 MG, Brain, glioblastoma, 72 hours, read-out: IC50 of Compounds in Adherent Cell Types
Experimental: as §1

MDA-MB-361 = assay: IC50 cell-based assay, adherent cells, MDA-MB-361; conditions: Homo sapiens, Breast, Brain met Her2-neu + ER +, 72 hours, read-out: IC50 of Compounds in Adherent Cell Types
Experimental: as §1

Pfeiffer = assay: IC50 cell-based assay, suspension cells, Pfeiffer; conditions: Homo sapiens, Lymphoma, Diffuse large b-cell, read-out: IC50 of Compounds in Suspension Cell Types
Experimental: as §1
(§2) In one embodiment, the IC50s of the compounds provided herein were determined in cell-based assays using suspension cells. In one embodiment, the activity of the compounds provided herein were determined in a cell-based assay using the JeKo-1 cell line (mantle cell lymphoma) or the Pfeiffer cell line (diffuse large B-cell lymphoma). In one embodiment, the suspension cells used in the cell-based assays may be a cell type selected from Table 2. Assays with suspension cells were similar except that 40,000-60,000 cells were added to each well and compounds were added immediately after cell plating.

Caki-1 = assay: IC50 cell-based assay, adherent cells, Caki-1; conditions: Homo sapiens, Kidney, clear cell carc., skin met, 72 hours, read-out: IC50 of Compounds in Adherent Cell Types
Experimental: as §1

Z138, JeKo-1 = assay: IC50 cell-based assay, suspension cells, Z138, JeKo-1; conditions: Lymphoma, Mantle cell, read-out: IC50 of Compounds in Suspension Cell Types
Experimental: as §1, §2

SupB15 = assay: IC50 cell-based assay, suspension cells, SupB15; conditions: Homo sapiens, SUP-B15, Leukemia, B-ALL (Philadelphia chromosome+), read-out: IC50 of Compounds in Suspension Cell Types
Experimental: as §1, §2

MCF-7 = assay: IC50 cell-based assay, adherent cells, MCF-7; conditions: Homo sapiens, MCF7, Breast, ER+, 72 hours, read-out: IC50 of Compounds in Adherent Cell Types
Experimental: as §1

AsPC-1 = assay: IC50 cell-based assay, adherent cells, AsPC-1; conditions: Homo sapiens, ASPC1, Pancreas, carcinoma, 72 hours, read-out: IC50 of Compounds in Adherent Cell Types
Experimental: as §1

[1] = Percent weight change of animals in MDA-MB-468 xenograft study; assay type: in vivo, Mouse/SCID; conditions: SCID mice
Experimental: In one embodiment, the effects of a compound provided herein on tumor growth in a mouse animal model were evaluated. In specific embodiments, the mouse animal model was the MDA-MB-468 xenograft model for breast cancer. Studies were performed to evaluate the effect of a compound provided herein on the growth of MDA-MB-468 breast tumors in mice. The test system that was used is summarized below:
Exemplary Protocol: Ten mice per group were inoculated s.c. on the left flank with 5×10^6 MDA-MB-468 cells. When tumors reached a mean volume of 100 or 200 mm^3, animals began treatment with a compound provided herein (See Table 4). Test article or vehicle were given once daily by IP injection for up to 21 days. Tumors were evaluated every Monday, Wednesday and Friday, body weights and condition were evaluated on a daily basis.
Animal Weight: All animals were weighed […] throughout the study. Group weight change was expressed as a daily group mean weight. Animals that lost greater than 20% of their total starting body weight were euthanized.
Compound 1 was dosed in mice at a dose of, for example, qd 50 mg/kg, for 22 days or more.
Compound 2 was dosed in mice at a dose of, for example, qd 20 mg/kg from day 0 to 7, then qd 10 mg/kg from day 8 and thereafter, for 22 days or more.

MDA-MB-231 = assay: IC50 cell-based assay, adherent cells, MDA-MB-231; conditions: Homo sapiens, Breast, triple neg, 72 hours, read-out: IC50 of Compounds in Adherent Cell Types
Experimental: as §1

HT-29 = assay: IC50 cell-based assay, adherent cells, HT-29; conditions: Homo sapiens, Colorectal, adenocarcinoma, 72 hours, read-out: IC50 of Compounds in Adherent Cell Types
Experimental: as §1

1937 = assay: IC50 cell-based assay, adherent cells, 1937; conditions: Breast, triple neg, 72 hours, read-out: IC50 of Compounds in Adherent Cell Types
Experimental: as §1

OVCAR-3 = assay: IC50 cell-based assay, adherent cells, OVCAR-3; conditions: Homo sapiens, Ovarian, adenocarcinoma, 72 hours, read-out: IC50 of Compounds in Adherent Cell Types
Experimental: as §1

IC50 (FaDu): < 5 µM
IC50 (U87-MG): < 5 µM
IC50 (MDA-MB-361): < 5 µM
IC50 (Pfeiffer): < 5 µM
IC50 (Caki-1): > 20 µM
IC50 (Z138, JeKo-1): < 5 µM
IC50 (SupB15): < 5 µM
IC50 (MCF-7): < 5 µM
IC50 (AsPC-1): < 5 µM
Percent Weight Change of Control and Treated Animals, mean ([1]; Day 1, qd 50 mg/kg IP): 0.00%
Percent Weight Change of Control and Treated Animals, mean ([1]; Day 2, qd 50 mg/kg IP): −0.44%
Percent Weight Change of Control and Treated Animals, mean ([1]; Day 3, qd 50 mg/kg IP): −1.43%
Percent Weight Change of Control and Treated Animals, mean ([1]; Day 4, qd 50 mg/kg IP): −2.23%
Percent Weight Change of Control and Treated Animals, mean ([1]; Day 5, qd 50 mg/kg IP): −2.06%
Percent Weight Change of Control and Treated Animals, mean ([1]; Day 6, qd 50 mg/kg IP): −2.03%
Percent Weight Change of Control and Treated Animals, mean ([1]; Day 7, qd 50 mg/kg IP): −3.50%
Percent Weight Change of Control and Treated Animals, mean ([1]; Day 8, qd 50 mg/kg IP): −4.53%
Percent Weight Change of Control and Treated Animals, mean ([1]; Day 9, qd 50 mg/kg IP): −2.38%
Percent Weight Change of Control and Treated Animals, mean ([1]; Day 10, qd 50 mg/kg IP): −3.42%
Percent Weight Change of Control and Treated Animals, mean ([1]; Day 11, qd 50 mg/kg IP): −1.63%
Percent Weight Change of Control and Treated Animals, mean ([1]; Day 12, qd 50 mg/kg IP): 1.40%
Percent Weight Change of Control and Treated Animals, mean ([1]; Day 13, qd 50 mg/kg IP): 1.13%
Percent Weight Change of Control and Treated Animals, mean ([1]; Day 14, qd 50 mg/kg IP): −0.56%
Percent Weight Change of Control and Treated Animals, mean ([1]; Day 15, qd 50 mg/kg IP): 2.28%
Percent Weight Change of Control and Treated Animals, mean ([1]; Day 16, qd 50 mg/kg IP): 2.07%
Percent Weight Change of Control and Treated Animals, mean ([1]; Day 17, qd 50 mg/kg IP): 2.03%
Percent Weight Change of Control and Treated Animals, mean ([1]; Day 18, qd 50 mg/kg IP): 2.87%
Percent Weight Change of Control and Treated Animals, mean ([1]; Day 19, qd 50 mg/kg IP): 4.84%
Percent Weight Change of Control and Treated Animals, mean ([1]; Day 20, qd 50 mg/kg IP): 0.92%
Percent Weight Change of Control and Treated Animals, mean ([1]; Day 21, qd 50 mg/kg IP): 1.87%
Percent Weight Change of Control and Treated Animals, mean ([1]; Day 22, qd 50 mg/kg IP): 0.07%
IC50 (MDA-MB-231): < 5 µM
IC50 (HT-29): < 5 µM
IC50 1937: < 5 µM
IC50 (OVCAR-3): < 5 µM
SMILES: O=C(Nc1cc(C(F)(F)F)cc(C(F)(F)F)c1)c1cc(-c2ccccc2)oc1C(F)(F)F [Compound 1, 5-Phenyl-2-trifluoromethyl-furan-3-carboxylic acid (3,5-bis-trifluoromethyl-phenyl)-amide]

IC50 (FaDu): < 5 µM
IC50 (U87-MG): 5 to 10 µM
IC50 (MDA-MB-361): < 5 µM
IC50 (Pfeiffer): < 5 µM
IC50 (Caki-1): 5 to 10 µM
IC50 (Z138, JeKo-1): < 5 µM
IC50 (SupB15): < 5 µM
IC50 (MCF-7): 5 to 10 µM
IC50 (AsPC-1): 5 to 10 µM
Percent Weight Change of Control and Treated Animals, mean ([1]; Day 1, qd 20 mg/kg days 0 to 7, then qd 10 mg/kg day 8 and thereafter, IP): 0.00%
Percent Weight Change of Control and Treated Animals, mean ([1]; Day 2, qd 20 mg/kg days 0 to 7, then qd 10 mg/kg day 8 and thereafter, IP): −1.11%
Percent Weight Change of Control and Treated Animals, mean ([1]; Day 3, qd 20 mg/kg days 0 to 7, then qd 10 mg/kg day 8 and thereafter, IP): −2.65%
Percent Weight Change of Control and Treated Animals, mean ([1]; Day 4, qd 20 mg/kg days 0 to 7, then qd 10 mg/kg day 8 and thereafter, IP): −3.35%
Percent Weight Change of Control and Treated Animals, mean ([1]; Day 5, qd 20 mg/kg days 0 to 7, then qd 10 mg/kg day 8 and thereafter, IP): −3.84%
Percent Weight Change of Control and Treated Animals, mean ([1]; Day 6, qd 20 mg/kg days 0 to 7, then qd 10 mg/kg day 8 and thereafter, IP): −1.98%
Percent Weight Change of Control and Treated Animals, mean ([1]; Day 7, qd 20 mg/kg days 0 to 7, then qd 10 mg/kg day 8 and thereafter, IP): −3.25%
Percent Weight Change of Control and Treated Animals, mean ([1]; Day 8, qd 20 mg/kg days 0 to 7, then qd 10 mg/kg day 8 and thereafter, IP): −5.29%
Percent Weight Change of Control and Treated Animals, mean ([1]; Day 9, qd 20 mg/kg days 0 to 7, then qd 10 mg/kg day 8 and thereafter, IP): −3.91%
Percent Weight Change of Control and Treated Animals, mean ([1]; Day 10, qd 20 mg/kg days 0 to 7, then qd 10 mg/kg day 8 and thereafter, IP): −6.29%
Percent Weight Change of Control and Treated Animals, mean ([1]; Day 11, qd 20 mg/kg days 0 to 7, then qd 10 mg/kg day 8 and thereafter, IP): −3.98%
Percent Weight Change of Control and Treated Animals, mean ([1]; Day 12, qd 20 mg/kg days 0 to 7, then qd 10 mg/kg day 8 and thereafter, IP): −1.48%
Percent Weight Change of Control and Treated Animals, mean ([1]; Day 13, qd 20 mg/kg days 0 to 7, then qd 10 mg/kg day 8 and thereafter, IP): −1.39%
Percent Weight Change of Control and Treated Animals, mean ([1]; Day 14, qd 20 mg/kg days 0 to 7, then qd 10 mg/kg day 8 and thereafter, IP): −2.75%
Percent Weight Change of Control and Treated Animals, mean ([1]; Day 15, qd 20 mg/kg days 0 to 7, then qd 10 mg/kg day 8 and thereafter, IP): −0.49%
Percent Weight Change of Control and Treated Animals, mean ([1]; Day 16, qd 20 mg/kg days 0 to 7, then qd 10 mg/kg day 8 and thereafter, IP): −1.04%
Percent Weight Change of Control and Treated Animals, mean ([1]; Day 17, qd 20 mg/kg days 0 to 7, then qd 10 mg/kg day 8 and thereafter, IP): −0.16%
Percent Weight Change of Control and Treated Animals, mean ([1]; Day 18, qd 20 mg/kg days 0 to 7, then qd 10 mg/kg day 8 and thereafter, IP): 0.96%
Percent Weight Change of Control and Treated Animals, mean ([1]; Day 19, qd 20 mg/kg days 0 to 7, then qd 10 mg/kg day 8 and thereafter, IP): −0.20%
Percent Weight Change of Control and Treated Animals, mean ([1]; Day 20, qd 20 mg/kg days 0 to 7, then qd 10 mg/kg day 8 and thereafter, IP): −1.98%
Percent Weight Change of Control and Treated Animals, mean ([1]; Day 21, qd 20 mg/kg days 0 to 7, then qd 10 mg/kg day 8 and thereafter, IP): −0.19%
Percent Weight Change of Control and Treated Animals, mean ([1]; Day 22, qd 20 mg/kg days 0 to 7, then qd 10 mg/kg day 8 and thereafter, IP): −0.65%
IC50 (MDA-MB-231): < 5 µM
IC50 (HT-29): 5 to 10 µM
IC50 1937: < 5 µM
IC50 (OVCAR-3): 5 to 10 µM
SMILES: O=C(Nc1cc(C(F)(F)F)cc(C(F)(F)F)c1)c1cc(-c2ccc(Cl)cc2)oc1C(F)(F)F [Compound 2, 5-(4-Chlorophenyl)-N-(3,5-bistrifluoromethylphenyl)-2-trifluoromethylfuran-3-carboxamide]
